Test results taken from patent US20230063321A1, “Methods for Treating Inflammatory Bowel Diseases with alpha4beta7 Integrin Antagonists” (Protagonist Therapeutics, Inc., priority 2020, published 2023).
“And” between values parts separate entries of the source, which are not always exact repeats. Equal values may be shown once. Numbered stars: 1 amine (or outer) side, 2 acyl side, 3 side chain; on linkers, the order of the positions; unused ones are H or OH. Bridge positions count the residues as written; N and C are the ends. Square brackets hold non-standard residues; d marks the D form. Peptide text beside a SMILES is read from it. I, II: the chains in the order shown. ξ: configuration not given here. Phe(4-tBu) = CC(C)(C)c1ccc(C[C@H](N)C(=O)O)cc1; Diglycolyl = O=C(COCC(=O)[*:2])[*:1]; NMeR = CN[C@@H](CCCNC(=N)N)C(=O)O; β3hE = N[C@@H](CCC(=O)O)CC(=O)O; Thr(3ξ) = CC(O)[C@H](N)C(=O)O; X1 = O=C(c1ccccc1C[*:2])[*:1]; Pen = CC(C)(S)[C@H](N)C(=O)O

Target: T1, α4β7 integrin on memory CD4+ T cells (Homo sapiens, UniProt P13612+P26010)
T1 construct: the amount of α4β7 expression on the cell surface of circulating lymphocytes; endogenous in cells; host or cells: heparinized whole blood of healthy volunteers
Experiment: Study 1 blood α4β7 receptor occupancy and receptor expression
Format: in vivo
Conditions: for Average RE (%) / Average RO (%) / REmax (%) / ROmax (%) / Tmax for RE / Tmax for RO: Mean ± SD
Procedure: After staining is completed, the samples are treated with a red blood cell lysis and fixation buffer, washed and acquired on a flow cytometer. To quantify receptor occupancy on α4β7 expressing memory CD4 T cells, the […] fluorescence intensity (MFI) of Alexa647-labelled peptide within the vedolizumab+ memory CD4+ T cells was used. Receptor occupancy was calculated according to the following formula: [Percent RO]=(1−([Unblocked]−[Blocked])/([Baseline Unblocked]−[Baseline Blocked]))×100.
Expression of α4β7 is defined by MFI of vedolizumab within the memory CD4+ T cells from the unblocked samples. Receptor expression (RE) was calculated as percent change of MFI from baseline for the vedolizumab stain.

[1] = 300 mg Fasted once daily, Day 1
[2] = 300 mg Fasted once daily, Day 14
[3] = 1000 mg Fasted once daily, Day 1
[4] = 1000 mg Fasted once daily, Day 14
[5] = single dose 1400 mg, listed as COMPOUND A

T1 sequence (P13612 34-1032): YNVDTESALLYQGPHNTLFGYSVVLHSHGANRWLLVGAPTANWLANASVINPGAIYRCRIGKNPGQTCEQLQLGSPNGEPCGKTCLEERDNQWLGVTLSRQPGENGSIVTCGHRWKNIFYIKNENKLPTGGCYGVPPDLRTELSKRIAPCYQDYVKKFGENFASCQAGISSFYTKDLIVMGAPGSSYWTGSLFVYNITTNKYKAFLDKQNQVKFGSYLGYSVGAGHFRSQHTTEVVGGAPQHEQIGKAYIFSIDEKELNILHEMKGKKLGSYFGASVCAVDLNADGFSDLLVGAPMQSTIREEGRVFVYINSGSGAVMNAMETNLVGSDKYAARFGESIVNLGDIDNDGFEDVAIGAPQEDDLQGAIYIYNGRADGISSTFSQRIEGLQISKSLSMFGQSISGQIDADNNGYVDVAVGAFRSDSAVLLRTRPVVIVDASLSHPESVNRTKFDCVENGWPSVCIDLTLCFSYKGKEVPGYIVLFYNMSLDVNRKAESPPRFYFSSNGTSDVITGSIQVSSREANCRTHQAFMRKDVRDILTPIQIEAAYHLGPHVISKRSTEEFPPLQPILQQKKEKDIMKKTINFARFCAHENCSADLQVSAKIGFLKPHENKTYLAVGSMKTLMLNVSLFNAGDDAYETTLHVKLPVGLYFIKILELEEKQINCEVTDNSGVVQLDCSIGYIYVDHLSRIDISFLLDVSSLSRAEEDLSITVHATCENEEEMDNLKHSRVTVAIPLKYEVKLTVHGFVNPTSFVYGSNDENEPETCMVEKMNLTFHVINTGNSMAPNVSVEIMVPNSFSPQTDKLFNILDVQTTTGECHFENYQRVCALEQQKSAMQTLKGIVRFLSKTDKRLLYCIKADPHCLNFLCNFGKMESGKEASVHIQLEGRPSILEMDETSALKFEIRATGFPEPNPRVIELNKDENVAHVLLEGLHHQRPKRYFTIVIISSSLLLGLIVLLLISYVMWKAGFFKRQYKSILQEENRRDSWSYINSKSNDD
T1 sequence (P26010 20-798): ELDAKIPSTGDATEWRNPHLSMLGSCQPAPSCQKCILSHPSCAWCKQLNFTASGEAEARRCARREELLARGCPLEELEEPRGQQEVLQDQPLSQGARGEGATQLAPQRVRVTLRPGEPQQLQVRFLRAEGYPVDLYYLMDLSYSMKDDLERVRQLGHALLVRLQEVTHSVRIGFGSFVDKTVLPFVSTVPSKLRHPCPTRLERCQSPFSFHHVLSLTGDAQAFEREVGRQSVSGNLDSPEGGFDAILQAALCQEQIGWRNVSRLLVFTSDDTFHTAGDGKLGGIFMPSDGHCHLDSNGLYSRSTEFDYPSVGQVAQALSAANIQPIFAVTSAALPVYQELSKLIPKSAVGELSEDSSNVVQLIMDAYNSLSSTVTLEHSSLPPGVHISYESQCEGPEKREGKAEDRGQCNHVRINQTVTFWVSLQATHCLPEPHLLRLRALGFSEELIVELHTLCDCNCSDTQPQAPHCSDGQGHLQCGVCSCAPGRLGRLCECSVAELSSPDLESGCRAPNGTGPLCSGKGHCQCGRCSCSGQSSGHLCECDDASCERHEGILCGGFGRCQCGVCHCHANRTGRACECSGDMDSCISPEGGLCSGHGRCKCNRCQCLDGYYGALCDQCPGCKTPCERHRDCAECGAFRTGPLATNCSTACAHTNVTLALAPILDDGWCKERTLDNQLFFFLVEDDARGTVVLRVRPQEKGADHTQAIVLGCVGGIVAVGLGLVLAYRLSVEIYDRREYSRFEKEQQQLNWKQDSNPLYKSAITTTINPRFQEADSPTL

CC(C)C[C@@H]1NC(=O)[C@H](C(C)O)NC(=O)[C@H](CC(=O)O)NC(=O)[C@H](CO)NC(=O)[C@H](CCCNC(=N)N)N(C)C(=O)c2ccccc2CSC(C)(C)[C@@H](C(=O)N[C@@H](Cc2ccc(C(C)(C)C)cc2)C(=O)N[C@@H](CCC(=O)O)CC(=O)N[C@H](CCCCNC(=O)COCC(=O)NCCCC[C@@H](NC(=O)C[C@H](CCC(=O)O)NC(=O)[C@H](Cc2ccc(C(C)(C)C)cc2)NC(=O)[C@H]2NC(=O)[C@H](CC(C)C)NC(=O)[C@H](C(C)O)NC(=O)[C@H](CC(=O)O)NC(=O)[C@H](CO)NC(=O)[C@H](CCCNC(=N)N)N(C)C(=O)c3ccccc3CSC2(C)C)C(=O)O)C(=O)O)NC1=O (stereo partly drawn) [Compound A, ((2-Benzyl)-(N-Me-R)-Ser-Asp-Thr-Leu-Pen-(Phe(4-tBlu))-(β-homo-Glu)-(D-Lys)-OH)2 (SEQ ID NO: 5) and linker-DIG diglycolic acid] (I: [NMeR]SD[Thr(3ξ)]L[Pen][Phe(4-tBu)][β3hE][dK]-OH / II: [NMeR]SD[Thr(3ξ)]L[Pen][Phe(4-tBu)][β3hE][dK]-OH; linker I:9-II:9 via Diglycolyl; linker I:N-I:6, II:N-II:6 via X1)
Average RE (%) (100 mg Fed once daily, Day 1): −12.3 ± 6.6%
Average RO (%) (100 mg Fed once daily, Day 1): 30.0 ± 7.7%
REmax (%) (100 mg Fed once daily, Day 1): −17.4 ± 7.5%
ROmax (%) (100 mg Fed once daily, Day 1): 46.8 ± 11.2%
Tmax for RE (100 mg Fed once daily, Day 1): 14.0 ± 4.2 h
Tmax for RO (100 mg Fed once daily, Day 1): 6.0 ± 3.7 h
Average RE (%) (100 mg Fed once daily, Day 14): −23.8 ± 6.9%
Average RO (%) (100 mg Fed once daily, Day 14): 40.5 ± 7.5%
REmax (%) (100 mg Fed once daily, Day 14): −29.1 ± 7.2%
ROmax (%) (100 mg Fed once daily, Day 14): 55.5 ± 8.82%
Tmax for RE (100 mg Fed once daily, Day 14): 12.0 ± 0 h
Tmax for RO (100 mg Fed once daily, Day 14): 5.0 ± 2.8 h
Average RE (%) [1]: −25.1 ± 4.4%
Average RO (%) [1]: 53.9 ± 6.5%
REmax (%) [1]: −33.1 ± 5.2%
ROmax (%) [1]: 77.8 ± 5.13%
Tmax for RE [1]: 12.0 ± 0 h
Tmax for RO [1]: 4.0 ± 0 h
ROmax (%) (300 mg Fasted once daily, Day 1, listed as COMPOUND A): 77.8%
Average RE (%) [2]: −37.7 ± 5.2%
Average RO (%) [2]: 61.1 ± 6.0%
REmax (%) [2]: −41.5 ± 5.9%
ROmax (%) [2]: 79.7 ± 5.40%
Tmax for RE [2]: 6.0 ± 3.7 h
Tmax for RO [2]: 4.0 ± 0 h
ROmax (%) (300 mg Fasted once daily, Day 14, listed as COMPOUND A): 79.7%
Average RE (%) (300 mg Fed once daily, Day 1): −20.1 ± 3.4%
Average RO (%) (300 mg Fed once daily, Day 1): 47.2 ± 7.5%
REmax (%) (300 mg Fed once daily, Day 1): −28.4 ± 4.4%
ROmax (%) (300 mg Fed once daily, Day 1): 70.4 ± 7.39%
Tmax for RE (300 mg Fed once daily, Day 1): 12.0 ± 0 h
Tmax for RO (300 mg Fed once daily, Day 1): 4.0 ± 0 h
Average RE (%) (300 mg Fed once daily, Day 14): −31.7 ± 4.0%
Average RO (%) (300 mg Fed once daily, Day 14): 57.8 ± 3.9%
REmax (%) (300 mg Fed once daily, Day 14): −37.2 ± 4.7%
ROmax (%) (300 mg Fed once daily, Day 14): 78.9 ± 5.89%
Tmax for RE (300 mg Fed once daily, Day 14): 12.0 ± 0 h
Tmax for RO (300 mg Fed once daily, Day 14): 4.0 ± 0 h
peak percent receptor occupancy (300 mg within 30 minutes following a high fat meal): 61.4%
Average RE (%) (450 mg BID, Day 1): −33.4 ± 4.4%
Average RO (%) (450 mg BID, Day 1): 76.4 ± 8.4%
REmax (%) (450 mg BID, Day 1): −42.6 ± 4.6%
ROmax (%) (450 mg BID, Day 1): 86.5% and 86.5 ± 4.11%
Tmax for RE (450 mg BID, Day 1): 19 ± 4.7 h
Tmax for RO (450 mg BID, Day 1): 16 ± 6.2 h
Average RE (%) (450 mg BID, Day 5, N = 7): −44.3 ± 4.2%
REmax (%) (450 mg BID, Day 5, N = 7): −47.3 ± 4.3%
ROmax (%) (450 mg BID, Day 5, N = 7): 91.9% and 91.9 ± 3.42%
Tmax for RE (450 mg BID, Day 5, N = 7): 5.6 ± 5.1 h
Tmax for RO (450 mg BID, Day 5, N = 7): 2.3 ± 1.6 h
Average RO (%) (450 mg BID, Day 5, N = 7, 24-hour AUEC): 85.3% and 85.3 ± 7.3%
receptor occupancy at 450 mg (450 mg twice daily, read-out: trough receptor occupancy): ~79.2%
Average RE (%) (900 mg QD, Day 1): −38.3 ± 4.9%
Average RO (%) (900 mg QD, Day 1): 80.7 ± 6.7%
REmax (%) (900 mg QD, Day 1): −47.3 ± 5.0%
ROmax (%) (900 mg QD, Day 1): 94.5% and 94.5 ± 2.61%
Tmax for RE (900 mg QD, Day 1): 13 ± 1.4 h
Tmax for RO (900 mg QD, Day 1): 5.4 ± 3.9 h
Average RE (%) (900 mg QD, Day 5): −44.6 ± 6.3%
REmax (%) (900 mg QD, Day 5): −50.1 ± 5.3%
ROmax (%) (900 mg QD, Day 5): 94.9% and 94.9 ± 1.97%
Tmax for RE (900 mg QD, Day 5): 11 ± 3.9 h
Tmax for RO (900 mg QD, Day 5): 3.3 ± 6.2 h
Average RO (%) (900 mg QD, Day 5, 24-hour AUEC): 79.2% and 79.2 ± 8.7%
Average RE (%) [3]: −33.9 ± 3.4%
Average RO (%) [3]: 77.1 ± 3.7%
REmax (%) [3]: −43.1 ± 4.0%
ROmax (%) [3]: 91.3 ± 2.93%
Tmax for RE [3]: 12.0 ± 0 h
Tmax for RO [3]: 7.0 ± 4.1 h
ROmax (%) (1000 mg Fasted once daily, Day 1, listed as COMPOUND A): 91.3%
Average RE (%) [4]: −51.3 ± 3.1%
Average RO (%) [4]: 81.5 ± 15.5%
REmax (%) [4]: −57.3 ± 2.9%
ROmax (%) [4]: 95.6 ± 0.97%
Tmax for RE [4]: 4.0 ± 0 h
Tmax for RO [4]: 4.0 ± 0 h
ROmax (%) (1000 mg Fasted once daily, Day 14, listed as COMPOUND A): 95.6%
mean peak receptor occupancy (doses of 900 mg): greater than 90%
trough receptor occupancy (once-daily 100 mg): approximately 25.4%
trough receptor occupancy (once-daily 1000 mg): ~78.6%
receptor occupancy at trough (once-daily or twice-daily dosing): greater than 80%
Average RE (%) (single dose 100 mg): −21.6 ± 7.1%
Average RO (%) (single dose 100 mg): 38.9 ± 12.5%
ROmax (%) (single dose 100 mg): 61.8 ± 10.8%
Tmax for RE (single dose 100 mg): 11 ± 6.0 h
Tmax for RO (single dose 100 mg): 3.8 ± 2.2 h
REmax (%) (single dose 100 mg, change from baseline): −28.2 ± 7.97%
REmax (%) (single dose 100 mg, change from baseline, listed as COMPOUND A): −28.2%
ROmax (%) (single dose 100 mg, listed as COMPOUND A): 61.8%
Average RE (%) (single dose 300 mg): −32.4 ± 3.0%
Average RO (%) (single dose 300 mg): 64.3 ± 6.6%
REmax (%) (single dose 300 mg): −43.6 ± 3.69%
ROmax (%) (single dose 300 mg): 83.4 ± 7.92%
Tmax for RE (single dose 300 mg): 12 ± 0 h
Tmax for RO (single dose 300 mg): 4.6 ± 2.3 h
ROmax (%) (single dose 300 mg, listed as COMPOUND A): 83.4%
Average RE (%) (single dose 1000 mg): −36.3 ± 2.9%
Average RO (%) (single dose 1000 mg): 81.0 ± 3.5%
REmax (%) (single dose 1000 mg): −45.4 ± 3.70%
ROmax (%) (single dose 1000 mg): 93.6 ± 2.04%
Tmax for RE (single dose 1000 mg): 12 ± 0 h
Tmax for RO (single dose 1000 mg): 4.1 ± 1.9 h
Average RE (%) (single dose 1400 mg): −40.3 ± 6.9%
Average RO (%) (single dose 1400 mg): 86.0 ± 6.8%
REmax (%) (single dose 1400 mg): −49.0 ± 8.20%
ROmax (%) (single dose 1400 mg): 94.8 ± 3.55%
Tmax for RE (single dose 1400 mg): 12 ± 0 h
Tmax for RO (single dose 1400 mg): 4.6 ± 3.2 h
REmax (%) [5]: −49.0%
ROmax (%) [5]: 94.8%
